# In ChEMBL document CHEMBL4130462, “Natural isoflavone biochanin A as a template for the design of new and potent 3-phenylquinolone efflux inhibitors against Mycobacterium avium” (Eur J Med Chem, 2017):
# Key:
# Mycobacterium avium [1] = assay: Antimycobacterial activity against Mycobacterium avium isolate MAV1 assessed as reduction in bacterial viability incubated for 3 days by MTT assay; format: organism-based; settings: in vitro, 72 h
# Mycobacterium avium [2] = assay: Antimycobacterial activity against Mycobacterium avium isolate MAV2 assessed as reduction in bacterial viability incubated for 3 days by MTT assay; format: organism-based; settings: 72 h
# Mycobacterium avium [3] = assay: Antimycobacterial activity against Mycobacterium avium isolate MAV3 assessed as reduction in bacterial viability incubated for 3 days by MTT assay; format: organism-based; settings: 72 h
# Mycobacterium avium [4] = assay: Antimycobacterial activity against Mycobacterium avium isolate MAV4 assessed as reduction in bacterial viability incubated for 3 days by MTT assay; format: organism-based; settings: 72 h
# [5] = Cytotoxicity in human monocyte-derived macrophages assessed as reduction in cell viability incubated for 3 days by alamar blue dye based assay; parameters: species or system Macrophage cell line
# [6] = Safety index, ratio of CC50 for test compound to CC50 for thioridazine for cytotoxicity in human monocyte-derived macrophages; format: cell-based, Macrophage cell line
# [7] = Safety index, ratio of MTC for test compound to MTC for thioridazine for cytotoxicity in human monocyte-derived macrophages; format: cell-based, Macrophage cell line
# [8] = Safety index, ratio of CC50 for test compound to CC50 for chlorpromazine for cytotoxicity in human monocyte-derived macrophages; format: cell-based, Macrophage cell line
# Mycobacterium avium [9] = settings: in vivo, 72 h
# Description: Antimycobacterial activity against Mycobacterium avium 104 mc'2 3 assessed as reduction in bacterial viability incubated for 3 days by MTT assay
# Mycobacterium avium [10] = settings: in vivo, 72 h; remark: listed apart in the source
# Description: Antimycobacterial activity against Mycobacterium avium 104 mc'2 4 assessed as reduction in bacterial viability incubated for 3 days by MTT assay
# Mycobacterium avium [11] = settings: 104
# Description: Inhibition of multidrug resistance efflux pump in Mycobacterium avium 104 assessed as potentiation of clarithromycin -induced antibacterial activity by measuring clarithromycin MIC at 1/2 MIC incubated for 3 days by MTT assay
# Mycobacterium avium [12] = settings: 104; remark: listed apart in the source
# Description: Inhibition of multidrug resistance efflux pump in Mycobacterium avium 104 assessed as potentiation of clarithromycin -induced antibacterial activity by measuring clarithromycin MIC at 1/4 MIC incubated for 3 days by MTT assay
# Mycobacterium avium [13] = settings: isolate MAV1
# Mycobacterium avium [14] = settings: isolate MAV2
# Description: Inhibition of multidrug resistance efflux pump in Mycobacterium avium isolate MAV2 assessed as potentiation of clarithromycin -induced antibacterial activity by measuring clarithromycin MIC at 1/4 MIC incubated for 3 days by MTT assay (Rvb = >1024 ug/ml)
# Mycobacterium avium [15] = settings: isolate MAV3
# Mycobacterium avium [16] = settings: isolate MAV3; remark: listed apart in the source
# Mycobacterium avium [17] = settings: isolate MAV4
# Description: Inhibition of multidrug resistance efflux pump in Mycobacterium avium isolate MAV4 assessed as potentiation of clarithromycin -induced antibacterial activity by measuring clarithromycin MIC at 1/2 MIC incubated for 3 days by MTT assay
# Mycobacterium avium [18] = settings: isolate MAV4; remark: listed apart in the source
# Description: Inhibition of multidrug resistance efflux pump in Mycobacterium avium isolate MAV4 assessed as potentiation of clarithromycin -induced antibacterial activity by measuring clarithromycin MIC at 1/4 MIC incubated for 3 days by MTT assay
# [19] = test system: Mycobacterium avium subsp. avium ATCC 25291
# Description: Inhibition of multidrug resistance efflux pump in Mycobacterium avium ATCC 25291 assessed as potentiation of clarithromycin -induced antibacterial activity by measuring clarithromycin MIC at 1/4 MIC incubated for 3 days by MTT assay
# Mycobacterium avium [20] = settings: 104; remark: listed apart in the source
# Mycobacterium avium [21] = settings: 104; remark: listed apart in the source
# Mycobacterium avium [22] = settings: 104 mc'2 3
# Mycobacterium avium [23] = settings: 104 mc'2 4
# Mycobacterium avium [24] = settings: isolate MAV1; remark: listed apart in the source
# Mycobacterium avium [25] = settings: isolate MAV1; remark: listed apart in the source
# Mycobacterium avium [26] = settings: isolate MAV2; remark: listed apart in the source
# Mycobacterium avium [27] = settings: isolate MAV2; remark: listed apart in the source
# Mycobacterium avium [28] = settings: isolate MAV3; remark: listed apart in the source
# Mycobacterium avium [29] = settings: isolate MAV4; remark: listed apart in the source
# Mycobacterium avium [30] = settings: isolate MAV4; remark: listed apart in the source
# [31] = test system: Mycobacterium avium subsp. avium ATCC 25291; remark: listed apart in the source
# Mycobacterium avium [32] = settings: 104; remark: listed apart in the source
# Mycobacterium avium [33] = settings: 104; remark: listed apart in the source
# Mycobacterium avium [34] = settings: 104 mc'2 3; remark: listed apart in the source
# Mycobacterium avium [35] = settings: 104 mc'2 4; remark: listed apart in the source
# Mycobacterium avium [36] = settings: 104 mc'2 4; remark: listed apart in the source
# Mycobacterium avium [37] = settings: isolate MAV1; remark: listed apart in the source
# Mycobacterium avium [38] = settings: isolate MAV1; remark: listed apart in the source
# Mycobacterium avium [39] = settings: isolate MAV2; remark: listed apart in the source
# Mycobacterium avium [40] = settings: isolate MAV3; remark: listed apart in the source
# Mycobacterium avium [41] = settings: isolate MAV3; remark: listed apart in the source
# Mycobacterium avium [42] = settings: isolate MAV4; remark: listed apart in the source
# [43] = test system: Mycobacterium avium subsp. avium ATCC 25291; remark: listed apart in the source
# Mycobacterium avium [44] = settings: 104; remark: listed apart in the source
# Mycobacterium avium [45] = settings: 104; remark: listed apart in the source
# Mycobacterium avium [46] = settings: 104 mc'2 3; remark: listed apart in the source
# Mycobacterium avium [47] = settings: 104 mc'2 4; remark: listed apart in the source
# Mycobacterium avium [48] = settings: 104 mc'2 4; remark: listed apart in the source
# Mycobacterium avium [49] = settings: isolate MAV1; remark: listed apart in the source
# Description: Inhibition of multidrug resistance efflux pump in Mycobacterium avium isolate MAV1 assessed as potentiation of ciprofloxacin-induced antibacterial activity by measuring ciprofloxacin MIC at 1/2 MIC incubated for 3 days by MTT assay (Rvb = 2 ug/ml)
# Mycobacterium avium [50] = settings: isolate MAV1; remark: listed apart in the source
# Description: Inhibition of multidrug resistance efflux pump in Mycobacterium avium isolate MAV1 assessed as potentiation of ciprofloxacin-induced antibacterial activity by measuring ciprofloxacin MIC at 1/4 MIC incubated for 3 days by MTT assay
# Mycobacterium avium [51] = settings: isolate MAV3; remark: listed apart in the source
# Mycobacterium avium [52] = settings: isolate MAV4; remark: listed apart in the source
# [53] = test system: Mycobacterium avium subsp. avium ATCC 25291; remark: listed apart in the source
# Mycobacterium avium [54] = settings: 104; remark: listed apart in the source
# Mycobacterium avium [55] = settings: 104 mc'2 3; remark: listed apart in the source
# Mycobacterium avium [56] = settings: 104 mc'2 4; remark: listed apart in the source
# Mycobacterium avium [57] = settings: isolate MAV1; remark: listed apart in the source
# Description: Inhibition of multidrug resistance efflux pump in Mycobacterium avium isolate MAV1 assessed as potentiation of ofloxacin-induced antibacterial activity by measuring ofloxacin MIC at 1/2 MIC incubated for 3 days by MTT assay (Rvb = 4 ug/ml)
# Mycobacterium avium [58] = settings: isolate MAV1; remark: listed apart in the source
# Description: Inhibition of multidrug resistance efflux pump in Mycobacterium avium isolate MAV1 assessed as potentiation of ofloxacin-induced antibacterial activity by measuring ofloxacin MIC at 1/4 MIC incubated for 3 days by MTT assay (Rvb = 4 ug/ml)
# Mycobacterium avium [59] = settings: isolate MAV3; remark: listed apart in the source
# Mycobacterium avium [60] = settings: isolate MAV4; remark: listed apart in the source
# Mycobacterium avium [61] = settings: 104; remark: listed apart in the source
# Mycobacterium avium [62] = settings: 104 mc'2 4; remark: listed apart in the source
# Mycobacterium avium [63] = settings: 104 mc'2 4; remark: listed apart in the source
# Mycobacterium avium [64] = settings: isolate MAV2; remark: listed apart in the source
# Mycobacterium avium [65] = settings: isolate MAV3; remark: listed apart in the source
# Mycobacterium avium [66] = settings: isolate MAV4; remark: listed apart in the source
# [67] = test system: Mycobacterium avium subsp. avium ATCC 25291; remark: listed apart in the source
# Description: Inhibition of multidrug resistance efflux pump in Mycobacterium avium ATCC 25291 assessed as potentiation of ethidium bromide-induced antibacterial activity by measuring ethidium bromide MIC at 1/4 MIC incubated for 3 days by MTT assay
smiles,measurement,setting,value
CCCOc1ccc(-c2cn(CCN3CCCCC3)c3ccccc3c2=O)cc1,MIC,Mycobacterium avium [1],128 µg/mL
same,MIC,Mycobacterium avium [2],256 µg/mL
same,MIC,Mycobacterium avium [3],128 µg/mL
same,MIC,Mycobacterium avium [4],256 µg/mL
same,CC50 at 72 h,[5]; human monocyte-derived macrophages,82.2 µM
same,MTC,"[5]; macrophage cell line, 72 h",40 µM
same,selectivity ratio,[6],4 to 6
same,selectivity ratio,[7],4 to 6
same,selectivity ratio,[8],2 to 4
same,MIC,Mycobacterium avium [9],256 µg/mL
same,MIC,Mycobacterium avium [10],256 µg/mL
same,MIC,Mycobacterium avium [11],< 0.125 µg/mL
same,MIC,Mycobacterium avium [12],< 0.125 µg/mL
same,MIC,Mycobacterium avium [13],0.25 µg/mL
same,MIC,Mycobacterium avium [14],512 µg/mL
same,MIC,Mycobacterium avium [15],0.5 µg/mL
same,MIC,Mycobacterium avium [16],2 µg/mL
same,MIC,Mycobacterium avium [17],< 0.0625 µg/mL
same,MIC,Mycobacterium avium [18],1 µg/mL
same,MIC,[19],4 µg/mL
same,MIC,Mycobacterium avium [20],< 0.125 µg/mL
same,MIC,Mycobacterium avium [21],< 0.125 µg/mL
same,MIC,Mycobacterium avium [22],< 4 µg/mL
same,MIC,Mycobacterium avium [23],< 4 µg/mL
same,MIC,Mycobacterium avium [24],< 4 µg/mL
same,MIC,Mycobacterium avium [25],< 4 µg/mL
same,MIC,Mycobacterium avium [26],256 µg/mL
same,MIC,Mycobacterium avium [27],512 µg/mL
same,MIC,Mycobacterium avium [28],< 4 µg/mL
same,MIC,Mycobacterium avium [29],< 4 µg/mL
same,MIC,Mycobacterium avium [30],< 4 µg/mL
same,MIC,[31],< 1 µg/mL
same,MIC,Mycobacterium avium [32],< 0.125 µg/mL
same,MIC,Mycobacterium avium [33],< 0.125 µg/mL
same,MIC,Mycobacterium avium [34],< 4 µg/mL
same,MIC,Mycobacterium avium [35],< 4 µg/mL
same,MIC,Mycobacterium avium [36],512 µg/mL
same,MIC,Mycobacterium avium [37],< 4 µg/mL
same,MIC,Mycobacterium avium [38],< 4 µg/mL
same,MIC,Mycobacterium avium [39],512 µg/mL
same,MIC,Mycobacterium avium [40],8 µg/mL
same,MIC,Mycobacterium avium [41],32 µg/mL
same,MIC,Mycobacterium avium [42],< 4 µg/mL
same,MIC,[43],8 µg/mL
same,MIC,Mycobacterium avium [44],< 0.125 µg/mL
same,MIC,Mycobacterium avium [45],< 0.125 µg/mL
same,MIC,Mycobacterium avium [46],< 0.125 µg/mL
same,MIC,Mycobacterium avium [47],< 0.125 µg/mL
same,MIC,Mycobacterium avium [48],2 µg/mL
same,MIC,Mycobacterium avium [49],< 0.031 µg/mL
same,MIC,Mycobacterium avium [50],2 µg/mL
same,MIC,Mycobacterium avium [51],1 µg/mL
same,MIC,Mycobacterium avium [52],2 µg/mL
same,MIC,[53],< 0.25 µg/mL
same,MIC,Mycobacterium avium [54],< 0.125 µg/mL
same,MIC,Mycobacterium avium [55],< 0.125 µg/mL
same,MIC,Mycobacterium avium [56],4 µg/mL
same,MIC,Mycobacterium avium [57],< 0.0625 µg/mL
same,MIC,Mycobacterium avium [58],1 µg/mL
same,MIC,Mycobacterium avium [59],4 µg/mL
same,MIC,Mycobacterium avium [60],< 0.125 µg/mL
same,MIC,Mycobacterium avium [61],< 0.195 µg/mL
same,MIC,Mycobacterium avium [62],< 0.195 µg/mL
same,MIC,Mycobacterium avium [63],3.12 µg/mL
same,MIC,Mycobacterium avium [64],3.12 µg/mL
same,MIC,Mycobacterium avium [65],3.12 µg/mL
same,MIC,Mycobacterium avium [66],< 0.39 µg/mL
same,MIC,[67],12.5 µg/mL
